Experiments:
[1] = rat, in vivo, sc
Procedure: (§1) Pharmacokinetic studies of the subcutaneous dosing of the DXM PK studies discussed herein were performed in rats where bolus DXM was compared to various formulations of DXM-MVLs at doses between 0.21-0.42 mg/kg. Female Sprague Dawley rats supplied by Absorption Systems weighing about 310 g received subcutaneous injections of either a bolus of unencapsulate (free or unencapsulated) DXM dissolved in H3PO4 solution or one the of the DXM-MVL formulations suspended in saline or buffered saline (20 mM phosphate). Injections were made on the left lateral hind limb of each rat using 100 μL syringes fitted with 25G needles. Each treatment group contained 3 rats.
(§2) Plasma samples were collected at different times points (0.5, 1, 2, 6, 12, 24, 48, 72 & 96 hour post dose) for analysis. Blood samples were collected via the right saphenous vein using a 19 gauge needle prick or cardiac puncture for the final time point, placed into chilled tubes containing the appropriate anticoagulant, inverted several times to mix, protected from light, and kept on ice until centrifugation.

in vivo = conditions: female, Sprague Dawley, rat, sc
Procedure: as §1, §2

[2] = background statement; cited from earlier work

AUC/Dose ([1]; female, Sprague Dawley): 383 pg·h/mL/mg/kg
Cmax/Cavg [1]: 2.3
time at which plasma DXM levels peaked [1]: within an hour
Tmax (in vivo): 0.5 h
half-life (in vivo): 2 h
Compound: Cc1cccc([C@H](C)c2cnc[nH]2)c1C [Unencapsulated DXM solution, dexmedetomidine]
t1/2 [2]: 2 h

— US20220273568A1, “MULT[…] FORMULATIONS OF DEXMEDETOMIDINE” (Pacira Pharmaceuticals, Inc., priority 2019, published 2022)
